Assay results taken from patent publication US7468391B2, “Methods for treating retinoid responsive disorders using selective inhibitors of CYP26A and CYP26B” (Allergan, Inc., priority 2003, dated 2008).

Legend:
[1] = target: T1, CYP26B (P450RAI-2) (Homo sapiens, UniProt Q9NR63); experiment: Cell-based inhibition of RA metabolism in CYP26B stably transfected HeLa cells; conditions: stably transfected HeLa cells, [3H]-RA, 3 hours at 37° C.; read-out: P450RAI-2 Whole cell IC50
T1 construct: expressed in transfected cells; host or cells: HeLa
T1 sequence (Q9NR63 1-512): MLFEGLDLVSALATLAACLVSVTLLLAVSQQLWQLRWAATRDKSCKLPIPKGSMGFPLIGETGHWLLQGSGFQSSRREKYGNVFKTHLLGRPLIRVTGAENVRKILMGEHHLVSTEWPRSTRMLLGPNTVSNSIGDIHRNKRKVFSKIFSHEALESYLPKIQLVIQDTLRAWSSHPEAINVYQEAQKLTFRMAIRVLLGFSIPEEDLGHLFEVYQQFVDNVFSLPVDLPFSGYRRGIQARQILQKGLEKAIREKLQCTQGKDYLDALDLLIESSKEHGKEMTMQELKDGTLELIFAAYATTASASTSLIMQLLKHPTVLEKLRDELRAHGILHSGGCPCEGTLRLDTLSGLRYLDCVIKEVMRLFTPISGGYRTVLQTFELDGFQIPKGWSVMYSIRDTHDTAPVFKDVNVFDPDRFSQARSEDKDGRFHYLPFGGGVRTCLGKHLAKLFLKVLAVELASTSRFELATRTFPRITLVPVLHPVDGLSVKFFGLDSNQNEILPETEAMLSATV
Description: (§1) In brief, CYP26A or CYP26B can be stably transfected into HeLa cells. Exponentially growing cells are harvested by incubating in trypsin. Cells are then washed and plated in a 48-well plate at 5×10^5 cells in 0.2 ml MEM medium containing 10% FBS and 0.05 μCi [^3H]-RA in the presence or absence of increasing concentrations of the test compounds. The compounds are diluted in 100% DMSO and then added in triplicate wells at either 10, 1 or 0.1 μM final concentration. As a positive control for RA metabolism inhibition, cells are also incubated with ketoconazole at 100, 10 and 1 μM. Cells are incubated for 3 hours at 37 degrees C. The retinoids are then extracted using the procedure of Bligh et al., Canadian Journal of Biochemistry 37: 911-917 (1959), modified by using methylenechloride instead of chloroform. This publication by Bligh et al., is specifically incorporated herein by reference. The water soluble radioactivity is quantified using a β scintillation counter, and IC50 values are determined.
(§2) CYP26A and CYP26B stably transfected HeLa cells were maintained in 100 mm tissue culture dishes in MEM medium containing 10% FBS and 100 μg/ml hygromycin.
(§3) Exponentially growing cells were harvested by incubating in trypsin. Cells were then washed with 1×PBS and plated in a 48-well plate at 5×10^5 cells in 0.2 ml MEM medium containing 10% FBS and 0.05 μCi [^3H]-RA in the presence or absence of increasing concentrations of the test compounds. The compounds were diluted in 100% DMSO and then added to triplicate wells at final concentrations of 10, 1 or 0.1 μM. As a positive control for RA metabolism inhibition, cells were also incubated with ketoconazole at 100, 10 and 1 μM. Cells were incubated for 3 hours at 37° C. The retinoids were then extracted using a modified Bligh and Dyer procedure (Bligh and Dyer, supra (1959)), in which methylene-chloride, as opposed to chloroform, was used, and the aqueous soluble radioactivity quantified using a β-scintillation counter. ID50 values represent the concentration of inhibitor required to inhibit RA metabolism by 50 percent and were derived manually from log-transformed data.

[2] = target: T2, RAR γ (Homo sapiens, UniProt P13631); experiment: RAR γ Kd; assay type: binding; conditions: last item of cell EC50/(EFFICACY)/Kd
T2 sequence (P13631 1-454): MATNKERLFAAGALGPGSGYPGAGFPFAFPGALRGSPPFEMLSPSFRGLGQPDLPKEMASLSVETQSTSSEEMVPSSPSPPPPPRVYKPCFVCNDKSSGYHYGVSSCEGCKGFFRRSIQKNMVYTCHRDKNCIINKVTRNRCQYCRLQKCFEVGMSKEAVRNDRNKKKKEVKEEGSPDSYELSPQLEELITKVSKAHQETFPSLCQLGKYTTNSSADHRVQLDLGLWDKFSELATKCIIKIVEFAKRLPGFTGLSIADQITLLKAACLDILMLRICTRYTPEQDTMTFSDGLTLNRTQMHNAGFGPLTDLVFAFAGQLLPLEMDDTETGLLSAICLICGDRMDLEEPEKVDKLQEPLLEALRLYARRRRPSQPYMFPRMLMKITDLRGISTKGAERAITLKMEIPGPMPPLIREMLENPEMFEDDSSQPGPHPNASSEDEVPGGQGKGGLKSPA

[3] = target: T3, RAR α (Homo sapiens, UniProt P10276); experiment: RAR α Kd; assay type: binding; conditions: last item of cell EC50/(EFFICACY)/Kd
T3 sequence (P10276 1-462): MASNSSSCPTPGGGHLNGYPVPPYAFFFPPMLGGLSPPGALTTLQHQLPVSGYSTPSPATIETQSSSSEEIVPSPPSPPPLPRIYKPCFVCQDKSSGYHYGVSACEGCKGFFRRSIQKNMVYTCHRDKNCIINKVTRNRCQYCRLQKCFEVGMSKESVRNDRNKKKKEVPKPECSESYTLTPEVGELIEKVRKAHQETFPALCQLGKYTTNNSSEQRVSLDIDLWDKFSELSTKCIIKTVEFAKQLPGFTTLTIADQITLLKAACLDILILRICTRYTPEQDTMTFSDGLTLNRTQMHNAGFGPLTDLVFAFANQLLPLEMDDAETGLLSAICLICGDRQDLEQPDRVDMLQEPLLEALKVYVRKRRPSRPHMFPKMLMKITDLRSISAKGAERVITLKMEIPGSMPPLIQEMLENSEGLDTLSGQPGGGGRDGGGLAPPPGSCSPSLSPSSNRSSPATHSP

[4] = target: T4, CYP26A (P450RAI-1) (Homo sapiens, UniProt O43174); experiment: Cell-based inhibition of RA metabolism in CYP26A stably transfected HeLa cells; conditions: stably transfected HeLa cells, [3H]-RA, 3 hours at 37° C.; read-out: P450RAI-1 Whole cell IC50
T4 construct: expressed in transfected cells; host or cells: HeLa
T4 sequence (O43174 1-497): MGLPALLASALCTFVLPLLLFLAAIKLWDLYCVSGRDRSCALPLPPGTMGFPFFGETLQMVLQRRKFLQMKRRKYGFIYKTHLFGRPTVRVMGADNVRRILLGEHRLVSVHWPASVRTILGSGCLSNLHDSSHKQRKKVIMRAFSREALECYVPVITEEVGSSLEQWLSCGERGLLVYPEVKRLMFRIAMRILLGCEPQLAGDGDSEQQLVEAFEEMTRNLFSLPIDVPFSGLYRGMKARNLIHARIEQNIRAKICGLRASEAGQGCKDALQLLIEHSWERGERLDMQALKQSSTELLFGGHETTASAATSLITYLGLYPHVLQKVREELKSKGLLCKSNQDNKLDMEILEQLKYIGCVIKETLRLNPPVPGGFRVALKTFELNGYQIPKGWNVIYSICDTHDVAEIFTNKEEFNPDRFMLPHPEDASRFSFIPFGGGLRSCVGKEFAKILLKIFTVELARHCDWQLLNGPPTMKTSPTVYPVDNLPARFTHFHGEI
Description: as §1, §2, §3

[5] = target: T5, RAR β (Homo sapiens, UniProt P10826); experiment: RAR β Kd; assay type: binding; conditions: last item of cell EC50/(EFFICACY)/Kd
T5 sequence (P10826 1-455): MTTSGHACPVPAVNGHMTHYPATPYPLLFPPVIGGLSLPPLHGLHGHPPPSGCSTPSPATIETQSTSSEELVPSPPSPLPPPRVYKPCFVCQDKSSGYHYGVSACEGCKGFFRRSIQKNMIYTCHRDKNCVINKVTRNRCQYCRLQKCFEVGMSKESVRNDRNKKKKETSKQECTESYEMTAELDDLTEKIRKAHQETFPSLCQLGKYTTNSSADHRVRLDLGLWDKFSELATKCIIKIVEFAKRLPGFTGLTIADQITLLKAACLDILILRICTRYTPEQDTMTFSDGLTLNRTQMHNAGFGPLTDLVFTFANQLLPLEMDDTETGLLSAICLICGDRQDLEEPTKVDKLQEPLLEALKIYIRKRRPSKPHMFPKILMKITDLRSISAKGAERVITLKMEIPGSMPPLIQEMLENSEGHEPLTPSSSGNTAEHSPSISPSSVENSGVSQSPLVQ

IC50 [1] | Kd [2] | Kd [3] | IC50 [4] | Kd [5] | SMILES
> 10 µM | > 10 µM | > 10 µM | 0.12 µM | > 10 µM | CN(Cc1cc(C#Cc2ccc(C(C)(C)C(=O)O)cc2)cc2c1OC(C)(C)CC2(C)C)C1CC1 [Compound 9, 2-(4-{8-[(Cyclopropyl-methyl-amino)-methyl]-2,2,4,4-tetramethyl-chroman-6-ylethynyl}-phenyl)-2-methyl-propionic acid]
> 10 µM | > 10 µM | 1.81 µM | 0.2 µM | 5.09 µM | CCc1cc(C#Cc2ccc(C(C)(C)C(=O)O)cc2)cc2c1C(N(C)C1CC1)CCC2(C)C (stereo not shown) [Compound 54, 2-{4-[5-(Cyclopropyl-methyl-amino)-4-ethyl-8,8-dimethyl-5,6,7,8-tetrahydro-naphthalen-2-ylethynyl]-phenyl}-2-methyl-propionic acid]
> 10 µM | > 10 µM | > 10 µM | 2.5 µM | > 10 µM | CC(C)OC(=O)c1ccc(C#Cc2ccc(CC(=O)O)c(F)c2)cc1CN(C)C1CC1 [Compound 39, 4-(4-Carboxymethyl-3-fluoro-phenylethynyl)-2-[(cyclopropyl-methyl-amino)-methyl]-benzoic acid isopropyl ester]
8.1 µM | > 10 µM | > 10 µM | 0.22 µM | > 10 µM | C#Cc1cc(C#Cc2ccc(CC(=O)O)c(F)c2)cc(C(=O)OC(C)C)c1 [Compound 61, 3-(4-Carboxymethyl-3-fluoro-phenylethynyl)-5-ethynyl-benzoic acid isopropyl ester]
8 µM | > 10 µM | 0.397 µM | 0.06 µM | > 10 µM | CC(C)Oc1cc(C#Cc2ccc(CC(=O)O)cc2)cc2c1OC(C)(C)CC2(C)C [Compound 13, [4-(8-Isopropoxy-2,2,4,4-tetramethyl-chroman-6-ylethynyl)-phenyl]-acetic acid]
> 10 µM | > 10 µM | 0.118 µM | 0.028 µM | 1.27 µM | COc1cc(C#Cc2ccc(C(C)C(=O)O)cc2)cc2c1C(N(C)C1CC1)CCC2(C)C (stereo not shown) [Compound 27, 2-{4-[5-(Cyclopropyl-methyl-amino)-4-methoxy-8,8-dimethyl-5,6,7,8-tetrahydro-naphthalen-2-ylethynyl]-phenyl}-propionic acid]
> 10 µM | > 10 µM | > 10 µM | 0.1 µM | > 10 µM | CN(C1CC1)C1CCC(C)(C)c2cc(C#Cc3ccc(C(C)(C)C(=O)O)cc3)cc(C3CC3)c21 (stereo not shown) [Compound 50, 2-{4-[4-Cyclopropyl-5-(cyclopropyl-methyl-amino)-8,8-dimethyl-5,6,7,8-tetrahydro-naphthalen-2-ylethynyl]-phenyl}-2-methyl-propionic acid]
4 µM | > 10 µM | 3.41 µM | 0.06 µM | > 10 µM | CN(Cc1cc(C#Cc2ccc(CC(=O)O)cc2)cc2c1OC(C)(C)CC2(C)C)C1CC1 [Compound 6, (4-{8-[(Cyclopropyl-methyl-amino)-methyl]-2,2,4,4-tetramethyl-chroman-6-ylethynyl}phenyl)-acetic acid]
> 10 µM | > 10 µM | > 10 µM | 1.3 µM | > 10 µM | CC(C)OC(=O)c1ccc(C#Cc2ccc(C(C)C(=O)O)cc2)cc1CN(C)C1CC1 (stereo not shown) [Compound 40, 4-[4-(1-Carboxy-ethyl)-phenylethynyl]-2-[(cyclopropyl-methyl-amino)-methyl]-benzoic acid isopropyl ester]
> 10 µM | 5.58 µM | 0.558 µM | 0.03 µM | 3.44 µM | CC1(C)CC2(CC2)Oc2c(C3CC3)cc(C#Cc3ccc(C(C)(C)C(=O)O)cc3)cc21 [Compound 2, 2-{4-[(8-Cyclopropyl-3,4-dihydro-4,4-dimethylspiro[2H-1-benzopyran-2,1′-cyclopropane]-6-yl)ethynyl]-phenyl}-2-methyl-propionic acid]

SMILES | IC50 [1] | Kd [2] | Kd [3] | IC50 [4] | Kd [5]
C#Cc1cc(C#Cc2ccc(CC(=O)OCOC(C)=O)c(F)c2)cc(C(=O)OC(C)C)c1 [Compound 62, 3-(4-Acetoxymethoxycarbonylmethyl-3-fluoro-phenylethynyl)-5-ethynyl-benzoic acid isopropyl ester] | 6.1 µM | > 10 µM | > 10 µM | 0.4 µM | > 10 µM
